Reference: patent US20220062240A1, “METHODS OF TREATING CANCER USING A CLK INHIBITOR” (BioSplice Therapeutics, Inc., priority 2018, published 2022)
pEC50: −log10 of the molar value. Like-named read-outs stand apart in the source and are kept apart here.

Experiments:
CLK2 = molecular target: T1, CLK2 (Homo sapiens, UniProt P49760); test: CLK2 kinase activity assay (Z-lyte, Ser/Thr 6 peptide); type: biochemical; details: recombinant CLK2 kinase, ATP 60 μM; read-out: EC50
T1 construct: purchased Thermo Fisher (Life Technologies), Z'-LYTE Kinase Assay Kits
Experimental: All reactions were performed in duplicate.

[1] = test system: ovarian cancer (4 cell lines); test: CellTiter-Glo Viability Assay, ovarian cancer; type: cell-based; details: Homo sapiens, inhibition of cancer cell proliferation
[2] = test system: lung cancer (4 cell lines); test: CellTiter-Glo Viability Assay, lung cancer; type: cell-based; details: Homo sapiens, inhibition of cancer cell proliferation
all 50 cell lines = test: CellTiter-Glo Viability Assay, average across all cell lines; type: cell-based; details: Homo sapiens; across all 50 cell lines; read-out: average EC50 for inhibition of cancer cell proliferation
Summary of the method: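 Cells were plated at 300-3,000 per well in their own media, then treated with compound in duplicate, with DMSO wells as controls. After four days at 37° C and 5% CO2, CellTiter-Glo was added, and luminescence was read. EC50s were fitted.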

CLK3 = CLK3 (Homo sapiens, UniProt P49761); test: CLK3 kinase activity assay (Z-lyte, Ser/Thr 18 peptide)
[3] = test system: haematopoietic & lymphoid tumors (13 cell lines); test: CellTiter-Glo Viability Assay, haematopoietic & lymphoid tumors; type: cell-based; details: Homo sapiens, inhibition of cancer cell proliferation
ZR-75-1 = test: CellTiter-Glo Viability Assay, breast cancer; type: cell-based; details: Homo sapiens, 96 h; ZR-75-1, breast cancer, four days; read-out: EC50
T47D = test: CellTiter-Glo Viability Assay, breast cancer; type: cell-based; details: Homo sapiens, 96 h, breast cancer, four days, read-out: EC50
HCC1599 = test: CellTiter-Glo Viability Assay, breast cancer; type: cell-based; details: Homo sapiens, 96 h; HCC1599, breast cancer, four days; read-out: EC50
MCF7 = test: CellTiter-Glo Viability Assay, breast cancer; type: cell-based; details: Homo sapiens, 96 h; MCF7, breast cancer, four days; read-out: EC50
DU4475 = test: CellTiter-Glo Viability Assay, breast cancer; type: cell-based; details: Homo sapiens, DU-4475, 96 h; DU4475, breast cancer, four days; read-out: EC50
MDA-MB-231-Luc = test: CellTiter-Glo Viability Assay, breast cancer; type: cell-based; details: Homo sapiens, 96 h; MDA-MB-231-Luc, breast cancer, four days; read-out: EC50
CAMA1 = test: CellTiter-Glo Viability Assay, breast cancer; type: cell-based; details: Homo sapiens, CAMA-1, 96 h; CAMA1, breast cancer, four days; read-out: EC50
BT-549 = test: CellTiter-Glo Viability Assay, breast cancer; type: cell-based; details: Homo sapiens, 96 h; BT-549, breast cancer, four days; read-out: EC50
[4] = test system: pancreatic cancer (8 cell lines); test: CellTiter-Glo Viability Assay, pancreatic cancer; type: cell-based; details: Homo sapiens, inhibition of cancer cell proliferation
[5] = test system: colorectal cancer (6 cell lines); test: CellTiter-Glo Viability Assay, colorectal cancer; type: cell-based; details: Homo sapiens, inhibition of cancer cell proliferation
[6] = test system: liver cancer (3 cell lines); test: CellTiter-Glo Viability Assay, liver cancer; type: cell-based; details: Homo sapiens, inhibition of cancer cell proliferation
[7] = test system: prostate cancer (5 cell lines); test: CellTiter-Glo Viability Assay, prostate cancer; type: cell-based; details: Homo sapiens

CLK3, sequence (P49761 whole entry): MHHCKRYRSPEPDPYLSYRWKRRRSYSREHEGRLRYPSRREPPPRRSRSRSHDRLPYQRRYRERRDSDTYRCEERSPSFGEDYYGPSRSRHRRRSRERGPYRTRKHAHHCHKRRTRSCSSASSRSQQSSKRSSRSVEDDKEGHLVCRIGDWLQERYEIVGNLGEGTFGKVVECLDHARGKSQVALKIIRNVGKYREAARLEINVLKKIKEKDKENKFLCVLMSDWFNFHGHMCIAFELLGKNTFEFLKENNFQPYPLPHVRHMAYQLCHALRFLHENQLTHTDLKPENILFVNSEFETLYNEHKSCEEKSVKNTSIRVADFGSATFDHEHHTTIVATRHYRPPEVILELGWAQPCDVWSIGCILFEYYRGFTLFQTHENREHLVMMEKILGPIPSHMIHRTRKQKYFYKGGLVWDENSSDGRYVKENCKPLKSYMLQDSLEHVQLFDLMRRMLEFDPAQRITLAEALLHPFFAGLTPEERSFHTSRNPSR
T1 sequence (P49760 whole entry): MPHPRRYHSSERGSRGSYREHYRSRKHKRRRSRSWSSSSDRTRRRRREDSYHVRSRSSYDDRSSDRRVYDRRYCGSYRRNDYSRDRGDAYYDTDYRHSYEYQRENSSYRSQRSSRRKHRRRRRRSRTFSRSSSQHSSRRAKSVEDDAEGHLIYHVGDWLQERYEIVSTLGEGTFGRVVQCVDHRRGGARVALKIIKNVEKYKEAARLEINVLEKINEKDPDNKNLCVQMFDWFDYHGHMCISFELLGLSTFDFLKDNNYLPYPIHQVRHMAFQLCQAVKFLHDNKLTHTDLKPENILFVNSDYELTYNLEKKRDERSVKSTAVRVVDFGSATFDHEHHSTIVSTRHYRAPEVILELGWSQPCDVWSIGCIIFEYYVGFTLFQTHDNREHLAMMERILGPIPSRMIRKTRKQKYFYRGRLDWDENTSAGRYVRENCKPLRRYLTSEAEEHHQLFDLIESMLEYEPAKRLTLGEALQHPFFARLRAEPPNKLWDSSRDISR

pEC50 (CLK2): 8.31
EC50 ([1]; PA-1, PA1 cell line, read-out: Ovarian cancer, EC50 (μM) PA1): 1.36 µM
EC50 ([1]; TOV112D, TOV-112D cell line, read-out: Ovarian cancer, EC50 (μM) TOV-112D): 1.43 µM
EC50 ([1]; OV-90 cell line, read-out: Ovarian cancer, EC50 (μM) OV-90): 3.65 µM
EC50 ([1]; OVCAR-3 cell line, read-out: Ovarian cancer, EC50 (μM) OVCAR-3): 0.866 µM
EC50 ([2]; A-427, A427 cell line, read-out: Lung cancer, EC50 (μM) A427): 1.12 µM
EC50 ([2]; HCC78, HCC-78 cell line, read-out: Lung cancer, EC50 (μM) HCC-78): 3.41 µM
EC50 ([2]; NCI-H460 cell line, read-out: Lung cancer, EC50 (μM) NCI-H460): 1.17 µM
EC50 ([2]; NCI-H522 cell line, read-out: Lung cancer, EC50 (μM) NCI-H522): 0.522 µM
pEC50 (CLK3): 7.42
EC50 ([3]; DND41, DND-41 cell line, read-out: Haematopoietic & Lymphoid tumors, EC50 (μM) DND-41): 0.538 µM
EC50 ([3]; MV4-11, MV-4-11 cell line, read-out: Haematopoietic & Lymphoid tumors, EC50 (μM) MV-4-11): 0.542 µM
EC50 ([3]; Rec1, REC-1 cell line, read-out: Haematopoietic & Lymphoid tumors, EC50 (μM) REC-1): 0.203 µM
EC50 ([3]; SU-DHL-4, SUDHL4 cell line, read-out: Haematopoietic & Lymphoid tumors, EC50 (μM) SUDHL4): 0.514 µM
EC50 ([3]; HL-60 cell line, read-out: Haematopoietic & Lymphoid tumors, EC50 (μM) HL-60): 2.46 µM
EC50 ([3]; JM1 cell line, read-out: Haematopoietic & Lymphoid tumors, EC50 (μM) JM1): 0.21 µM
EC50 ([3]; JURKAT, Clone E6-1 cell line, read-out: Haematopoietic & Lymphoid tumors, EC50 (μM) JURKAT, Clone E6-1): 1.26 µM
EC50 ([3]; JeKo-1 cell line, read-out: Haematopoietic & Lymphoid tumors, EC50 (μM) JeKo-1): 0.259 µM
EC50 ([3]; KASUMI-1 cell line, read-out: Haematopoietic & Lymphoid tumors, EC50 (μM) KASUMI-1): 1.16 µM
EC50 ([3]; Loucy cell line, read-out: Haematopoietic & Lymphoid tumors, EC50 (μM) Loucy): 0.916 µM
EC50 ([3]; MOLT-4 cell line, read-out: Haematopoietic & Lymphoid tumors, EC50 (μM) MOLT-4): 1.35 µM
EC50 ([3]; TF-1 cell line, read-out: Haematopoietic & Lymphoid tumors, EC50 (μM) TF-1): 3.93 µM
EC50 ([3]; TOLEDO cell line, read-out: Haematopoietic & Lymphoid tumors, EC50 (μM) TOLEDO): 0.337 µM
pEC50 (ZR-75-1): 5.53
pEC50 (T47D): 5.15
pEC50 (HCC1599): 5.98
pEC50 (MCF7): 5.39
pEC50 (DU4475): 5.86
pEC50 (MDA-MB-231-Luc): 5.52
pEC50 (CAMA1): 5.58
pEC50 (BT-549): 5.81
pEC50 ([4]; BXPC-3, BxPC3 cell line, read-out: Pancreatic cancer, EC50 BxPC3): 5.90
pEC50 ([4]; CAPAN-1, Capan1 cell line, read-out: Pancreatic cancer, EC50 Capan1): 6.02
pEC50 ([4]; Capan-2, Capan2 cell line, read-out: Pancreatic cancer, EC50 Capan2): 5.93
pEC50 ([4]; MIA PaCa-2 cell line, read-out: Pancreatic cancer, EC50 MIA PaCa-2): 6.12
pEC50 ([4]; PANC 05.04 cell line, read-out: Pancreatic cancer, EC50 PANC 05.04): 5.54
pEC50 ([4]; PANC-1 cell line, read-out: Pancreatic cancer, EC50 PANC-1): 5.58
pEC50 ([4]; UPAFII cell line, read-out: Pancreatic cancer, EC50 UPAFII): 5.99
EC50 ([5]; HCT-116, HCT116 cell line, read-out: Colorectal cancer, EC50 (μM) HCT116): 0.904 µM
EC50 ([5]; HT-29, HT29 cell line, read-out: Colorectal cancer, EC50 (μM) HT29): 1.32 µM
EC50 ([5]; SW-620, SW620 cell line, read-out: Colorectal cancer, EC50 (μM) SW620): 0.798 µM
EC50 ([5]; DLD-1 cell line, read-out: Colorectal cancer, EC50 (μM) DLD-1): 1.1 µM
EC50 ([5]; SW48 cell line, read-out: Colorectal cancer, EC50 (μM) SW48): 0.394 µM
EC50 ([5]; SW480 cell line, read-out: Colorectal cancer, EC50 (μM) SW480): 1.7 µM
pEC50 ([6]; SNU-398, SNU398 cell line, read-out: Liver cancer, EC50 SNU398): 6.75
pEC50 ([6]; HEPG2 cell line, read-out: Liver cancer, EC50 HEPG2): 5.16
pEC50 ([6]; PLC/PRF/5 cell line, read-out: Liver cancer, EC50 PLC/PRF/5): 5.37
pEC50 ([7]; DU-145, read-out: Prostate cancer EC50 Du-145): 5.83
pEC50 ([7]; PC-3, PC3 cell line, inhibition of cancer cell proliferation, read-out: Prostate cancer EC50 PC3): 5.78
pEC50 ([7]; 22Rv1 cell line, inhibition of cancer cell proliferation, read-out: Prostate cancer EC50 22Rv1): 6.19
pEC50 ([7]; LNCap clone FGC cell line, inhibition of cancer cell proliferation, read-out: Prostate cancer EC50 LNCap clone FGC): 5.11
pEC50 ([7]; VCaP (Sigma) cell line, inhibition of cancer cell proliferation, read-out: Prostate cancer EC50 VCaP (Sigma)): 6.28
SMILES: Cc1cc2ncc(-c3ccc4cnc(NC(=O)c5ccnc(N6CCN(C)CC6)c5)cc4c3)cc2[nH]1 [Compound 87]
pEC50 (all 50 cell lines): 5.74
